Measurements reported in PMC11157491, “Novel Alaninamide Derivatives with Drug-like Potential for Development as Antiseizure and Antinociceptive Therapies—In Vitro and In Vivo Characterization” (ACS Chemical Neuroscience, 2024).
Where two headings read alike, the source gives them in different places.

Experiment: Pharmacokinetic study in serum and brain
Type: in vivo, mice
Conditions: for k el: read-out: λz (converted); for Vd/F: read-out: Vz/F
Procedure: Male CD-1 mice weighing 28–33 g housed in conditions of constant temperature with the 12:12 h light–dark cycle with free access to food and water were used in this study. The investigated compound was suspended in 1% Tween in sterile water for injection (Polpharma, Poland) and administered i.p. at two doses of 25 and 50 mg/kg. Additionally, the compound dissolved in a mixture of dimethylsulfoxide (DMSO), poly(ethylene glycol), and sterile water (1:2:7, v/v/v) was given orally (p.o.) at a dose of 25 mg/kg. The mice were sacrificed by decapitation under isoflurane anesthesia. Blood samples were collected at 5, 15, 30, 60, 120, 240, and 720 min after dosing (n = 3–4), and brains were harvested at the same time points. Blood was allowed to clot at room temperature for 20 min, and serum was separated by centrifugation at 3000 rpm for 10 min. The samples were stored at −80 °C until analysis. All animal procedures were approved by the First Ethics Committee on Animal Experimentation in Kraków (license no. 270/2019).
Before LC-MS/MS analysis, mouse brains were homogenized in distilled water at the ratio of 1:4 (w/v) using the ULTRA-TURRAX T10 basic tissue homogenizer (IKA, Germany). Brain homogenates or serum samples (50 μL) were deproteinized with 150 μL of 0.1% formic acid in acetonitrile with addition of the internal standard (valsartan), shaken for 10 min (IKA Vibrax VXR, Germany), and then centrifuged for 5 min at a speed of 8000g (Eppendorf miniSpin centrifuge, Germany). Supernatants were transferred into autosampler vials, and a sample volume of 1 μL was injected into the LC-MS/MS system. The autosampler temperature was maintained at 15 °C. Analytes were separated on a Hypersil Gold C18 analytical column (3 × 50 mm^2, 5 μm, Thermo Scientific) using an AB Sciex Exion LC AC HPLC system coupled with the triple quadrupole mass spectrometer (Sciex QTRAP 4500, both from the Danaher Corporation). The oven temperature was set at 30 °C. The initial mobile phase composition was 95% B (0.1% formic acid in water) and 5% A (0.1% formic acid in MeCN) for the first 2 min with a linear gradient to 5% B in the next 2 min and then isocratic mode for 2 min with the following rapid change back to 95% B in 0.1 min. The remaining time of elution was set at 95% B. The whole HPLC operation lasted 10 min, and the flow rate was set at 0.4 mL/min. Electrospray ionization (ESI) in the positive ion mode was used for ion production. […] The mass spectrometric conditions were optimized by continuous infusion of the standard solution at a rate of 7 μL/min using a Harvard infusion pump. The ion source temperature was maintained at 450 °C, and the ion spray voltage was set at 5500 V. The curtain gas (CUR) was set at 40 psi and the collision gas (CAD) at Medium. The calibration curves were constructed by plotting the ratio of the peak area of the studied compound to the internal standard (IS) versus drug concentration and generated by weighted (1/x × x) linear regression analysis. […] Working standard solutions were prepared in methanol by the serial dilution of the stock solution at the following concentrations: 0.01, 0.1, 0.25, 0.5, 1, 2.5, 5, 10, 20, 50, 100, and 200 μg/mL. To prepare samples for the calibration curve, 45 μL of the matrix (plasma or brain homogenate) was spiked with 5 μL of the standard working solution at an appropriate concentration level and vortexed for 10 s. For each matrix, there were two calibration curves constructed separately for lower and higher concentrations. Calibrators (as well as samples) from the upper concentration range were additionally 10 times diluted with the precipitating agent. The validated quantitation ranges for this method were from 0.001 to 5 μg/mL and from 0.1 to 20 μg/mL of serum, and from 0.005 to 25 μg/g and from 0.5 to 100 μg/g of the brain. Samples with the concentration of 28 above the upper limit of quantification were diluted 10 times with the blank matrix (serum or brain homogenate). […]

[1] = male, CD-1, mouse, ip, brain, i.p. 25 mg/kg, mice
[2] = male, CD-1, mouse, ip, brain, i.p. 50 mg/kg, mice
[3] = male, CD-1, mouse, ip, serum, i.p. 25 mg/kg, mice
[4] = male, CD-1, mouse, ip, serum, i.p. 50 mg/kg, mice
[5] = male, CD-1, mouse, po, brain, p.o. 25 mg/kg, mice
[6] = male, CD-1, mouse, po, serum, p.o. 25 mg/kg, mice

CC(=O)NC(C)C(=O)N1CCN(c2cccc(OC(F)(F)F)c2)CC1 (stereo not shown) [Compound 28, N-(1-oxo-1-(4-(3-(Trifluoromethoxy)phenyl)piperazin-1-yl)propan-2-yl)acetamide]
brain concentration (after 25 mg/kg dose administration): > 10 µM
AUC0–t (brain, i.p. 25 mg/kg, mice): 347,914.8 ng·min/mL (g)
AUC0–∞ (brain, i.p. 25 mg/kg, mice): 348,212.5 ng·min/mL (g)
Cmax (brain, i.p. 25 mg/kg, mice): 13,683.3 ng/mL (g)
t0.5λz (brain, i.p. 25 mg/kg, mice): 111.39 min
AUC0–t (brain, i.p. 50 mg/kg, mice): 1,284,194.3 ng·min/mL (g)
AUC0–∞ (brain, i.p. 50 mg/kg, mice): 1,285,007.9 ng·min/mL (g)
Cmax (brain, i.p. 50 mg/kg, mice): 39,800.0 ng/mL (g)
t0.5λz (brain, i.p. 50 mg/kg, mice): 106.52 min
AUC0–t (brain, p.o. 25 mg/kg, mice): 333,360.7 ng·min/mL (g)
AUC0–∞ (brain, p.o. 25 mg/kg, mice): 334,667.7 ng·min/mL (g)
Cmax (brain, p.o. 25 mg/kg, mice): 3799.4 ng/mL (g)
t0.5λz (brain, p.o. 25 mg/kg, mice): 97.20 min
Kp (male, CD-1, mouse, brain/serum, intraperitoneal, oral, both doses and routes of administration, read-out: brain-to-serum Cmax and AUC ratio): > 1
Tmax (male, CD-1, mouse, intraperitoneal, oral, all cases (serum and brain, both doses and routes), read-out: time to reach the maximum concentration (tmax) (converted)): 5 min
half-life (male, CD-1, mouse, intraperitoneal, oral, serum and brain, both doses and routes (i.p. and p.o.), read-out: elimination half-lives (t1/2)): 58.6 to 111 min
MRT [1]: 23.6 min
Tmax (male, CD-1, mouse, ip, brain, i.p. 25 mg/kg, mice, read-out: tmax (converted)): 5 min
k el [1]: 0.0001 s⁻¹
MRT [2]: 26.4 min
Tmax (male, CD-1, mouse, ip, brain, i.p. 50 mg/kg, mice, read-out: tmax (converted)): 5 min
k el [2]: 0.000117 s⁻¹
CL/F [3]: 98 mL/min/kg
MRT [3]: 22 min
Vd/F [3]: 13.4 L/kg
Tmax (male, CD-1, mouse, ip, serum, i.p. 25 mg/kg, mice, read-out: tmax (converted)): 5 min
k el [3]: 0.000117 s⁻¹
CL/F [4]: 48 mL/min/kg
MRT [4]: 24.4 min
Vd/F [4]: 5.89 L/kg
Tmax (male, CD-1, mouse, ip, serum, i.p. 50 mg/kg, mice, read-out: tmax (converted)): 5 min
k el [4]: 0.000133 s⁻¹
MRT [5]: 110 min
Tmax (male, CD-1, mouse, po, brain, p.o. 25 mg/kg, mice, read-out: tmax (converted)): 5 min
k el [5]: 0.000117 s⁻¹
CL/F [6]: 84 mL/min/kg
MRT [6]: 101 min
Vd/F [6]: 7.1 L/kg
Tmax (male, CD-1, mouse, po, serum, p.o. 25 mg/kg, mice, read-out: tmax (converted)): 5 min
k el [6]: 0.0002 s⁻¹
AUC0–t (serum, i.p. 25 mg/kg, mice): 254,384.6 ng·min/mL (g)
AUC0–∞ (serum, i.p. 25 mg/kg, mice): 254,465.4 ng·min/mL (g)
Cmax (serum, i.p. 25 mg/kg, mice): 11,033.3 ng/mL (g)
t0.5λz (serum, i.p. 25 mg/kg, mice): 94.29 min
AUC0–t (serum, i.p. 50 mg/kg, mice): 1,045,787.2 ng·min/mL (g)
AUC0–∞ (serum, i.p. 50 mg/kg, mice): 1,045,940.8 ng·min/mL (g)
Cmax (serum, i.p. 50 mg/kg, mice): 37,566.7 ng/mL (g)
t0.5λz (serum, i.p. 50 mg/kg, mice): 85.42 min
AUC0–t (serum, p.o. 25 mg/kg, mice): 297,899.7 ng·min/mL (g)
AUC0–∞ (serum, p.o. 25 mg/kg, mice): 298,019.5 ng·min/mL (g)
Cmax (serum, p.o. 25 mg/kg, mice): 3740.0 ng/mL (g)
t0.5λz (serum, p.o. 25 mg/kg, mice): 58.62 min
